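These data come from cells grown in 96-well plates and exposed to compound for 48 hours at five concentrations. GI50 is the concentration that inhibits growth by half. TGI denotes the concentration required for complete inhibition of growth.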
Legend:
Experiment in all cases: DTP human tumour cell line panel, 48 h
786-0 renal = tested on: 786-0 renal
A498 renal = tested on: A498 renal
A549 NSCLC = tested on: A549 NSCLC
ACHN renal = tested on: ACHN renal
BT-549 breast = tested on: BT-549 breast
CAKI-1 renal = tested on: CAKI-1 renal
CCRF-CEM leukemia = tested on: CCRF-CEM leukemia
COLO 205 colon = tested on: COLO 205 colon
DU-145 prostate = tested on: DU-145 prostate
EKVX NSCLC = tested on: EKVX NSCLC
HCC-2998 colon = tested on: HCC-2998 colon
HCT-116 colon = tested on: HCT-116 colon
HCT-15 colon = tested on: HCT-15 colon
HL-60(TB) leukemia = tested on: HL-60(TB) leukemia
HOP-62 NSCLC = tested on: HOP-62 NSCLC
HOP-92 NSCLC = tested on: HOP-92 NSCLC
HS 578T breast = tested on: HS 578T breast
HT29 colon = tested on: HT29 colon
IGROV1 ovarian = tested on: IGROV1 ovarian
K-562 leukemia = tested on: K-562 leukemia
KM12 colon = tested on: KM12 colon
LOX IMVI melanoma = tested on: LOX IMVI melanoma
M14 melanoma = tested on: M14 melanoma
MALME-3M melanoma = tested on: MALME-3M melanoma
MCF7 breast = tested on: MCF7 breast
MDA-MB-231 breast = tested on: MDA-MB-231 breast
MDA-MB-435 = tested on: MDA-MB-435
MDA-MB-468 breast = tested on: MDA-MB-468 breast
MOLT-4 leukemia = tested on: MOLT-4 leukemia
NCI-H226 lung = tested on: NCI-H226 lung
NCI-H23 lung = tested on: NCI-H23 lung
NCI-H460 lung = tested on: NCI-H460 lung
NCI-H522 lung = tested on: NCI-H522 lung
NCI/ADR-RES ovarian = tested on: NCI/ADR-RES ovarian
OVCAR-3 ovarian = tested on: OVCAR-3 ovarian
OVCAR-4 ovarian = tested on: OVCAR-4 ovarian
OVCAR-5 ovarian = tested on: OVCAR-5 ovarian
OVCAR-8 ovarian = tested on: OVCAR-8 ovarian
PC-3 prostate = tested on: PC-3 prostate
RPMI-8226 leukemia = tested on: RPMI-8226 leukemia
RXF 393 renal = tested on: RXF 393 renal
SF-268 CNS = tested on: SF-268 CNS
SF-295 CNS = tested on: SF-295 CNS
SF-539 CNS = tested on: SF-539 CNS
SK-MEL-2 melanoma = tested on: SK-MEL-2 melanoma
SK-MEL-28 melanoma = tested on: SK-MEL-28 melanoma
SK-MEL-5 melanoma = tested on: SK-MEL-5 melanoma
SK-OV-3 ovarian = tested on: SK-OV-3 ovarian
SN12C renal = tested on: SN12C renal
SNB-19 CNS = tested on: SNB-19 CNS
SNB-75 CNS = tested on: SNB-75 CNS
SR leukemia = tested on: SR leukemia
SW-620 colon = tested on: SW-620 colon
T-47D breast = tested on: T-47D breast
TK-10 renal = tested on: TK-10 renal
U251 CNS = tested on: U251 CNS
UACC-257 melanoma = tested on: UACC-257 melanoma
UACC-62 melanoma = tested on: UACC-62 melanoma
UO-31 renal = tested on: UO-31 renal

Compound: Cc1ccc(NC(=O)N/N=C/c2c[nH]c3ccccc23)c(C)c1
- GI50 (786-0 renal): 481 nM
- TGI (786-0 renal): 13.9 µM
- GI50 (A498 renal): 12.7 µM
- TGI (A498 renal): 38.4 µM
- GI50 (A549 NSCLC): 588 nM
- TGI (A549 NSCLC): 45.9 µM
- GI50 (ACHN renal): 637 nM
- TGI (ACHN renal): > 57.6 µM
- GI50 (BT-549 breast): 596 nM
- TGI (BT-549 breast): 23.9 µM
- GI50 (CAKI-1 renal): 261 nM
- TGI (CAKI-1 renal): > 44 µM
- GI50 (CCRF-CEM leukemia): 308 nM
- TGI (CCRF-CEM leukemia): > 40 µM
- GI50 (COLO 205 colon): 361 nM
- TGI (COLO 205 colon): 1590 nM
- GI50 (DU-145 prostate): 432 nM
- TGI (DU-145 prostate): 19.4 µM
- GI50 (EKVX NSCLC): 469 nM
- TGI (EKVX NSCLC): > 100 µM
- GI50 (HCC-2998 colon): 492 nM
- TGI (HCC-2998 colon): 4.53 µM
- GI50 (HCT-116 colon): 245 nM
- TGI (HCT-116 colon): 4.79 µM
- GI50 (HCT-15 colon): 78.5 nM
- TGI (HCT-15 colon): > 34.9 µM
- GI50 (HL-60(TB) leukemia): 99.7 nM
- TGI (HL-60(TB) leukemia): 2730 nM
- GI50 (HOP-62 NSCLC): 343 nM
- TGI (HOP-62 NSCLC): 26.2 µM
- GI50 (HOP-92 NSCLC): 1600 nM
- TGI (HOP-92 NSCLC): 19 µM
- GI50 (HS 578T breast): 281 nM
- TGI (HS 578T breast): 23.1 µM
- GI50 (HT29 colon): 164 nM
- TGI (HT29 colon): 1040 nM
- GI50 (IGROV1 ovarian): 378 nM
- TGI (IGROV1 ovarian): 20.1 µM
- GI50 (K-562 leukemia): 41.8 nM
- TGI (K-562 leukemia): > 100 µM
- GI50 (KM12 colon): 205 nM
- TGI (KM12 colon): 10.1 µM
- GI50 (LOX IMVI melanoma): 365 nM
- TGI (LOX IMVI melanoma): 8.33 µM
- GI50 (M14 melanoma): 175 nM
- TGI (M14 melanoma): 12.8 µM
- GI50 (MALME-3M melanoma): 241 nM
- TGI (MALME-3M melanoma): 19.1 µM
- GI50 (MCF7 breast): 235 nM
- TGI (MCF7 breast): 27.9 µM
- GI50 (MDA-MB-231 breast): 495 nM
- TGI (MDA-MB-231 breast): 5.41 µM
- GI50 (MDA-MB-435): 28.1 nM
- TGI (MDA-MB-435): 110 nM
- GI50 (MDA-MB-468 breast): 178 nM
- TGI (MDA-MB-468 breast): 543 nM
- GI50 (MOLT-4 leukemia): 269 nM
- TGI (MOLT-4 leukemia): > 32.8 µM
- GI50 (NCI-H226 lung): 2500 nM
- TGI (NCI-H226 lung): > 100 µM
- GI50 (NCI-H23 lung): 418 nM
- TGI (NCI-H23 lung): 12.2 µM
- GI50 (NCI-H460 lung): 357 nM
- TGI (NCI-H460 lung): 15.7 µM
- GI50 (NCI-H522 lung): 37.9 nM
- TGI (NCI-H522 lung): 327 nM
- GI50 (NCI/ADR-RES ovarian): 68.9 nM
- TGI (NCI/ADR-RES ovarian): 631 nM
- GI50 (OVCAR-3 ovarian): 138 nM
- TGI (OVCAR-3 ovarian): 1800 nM
- GI50 (OVCAR-4 ovarian): 5.49 µM
- TGI (OVCAR-4 ovarian): > 100 µM
- GI50 (OVCAR-5 ovarian): 565 nM
- TGI (OVCAR-5 ovarian): 15.5 µM
- GI50 (OVCAR-8 ovarian): 378 nM
- TGI (OVCAR-8 ovarian): 3.11 µM
- GI50 (PC-3 prostate): 517 nM
- TGI (PC-3 prostate): > 100 µM
- GI50 (RPMI-8226 leukemia): 373 nM
- TGI (RPMI-8226 leukemia): 25.6 µM
- GI50 (RXF 393 renal): 267 nM
- TGI (RXF 393 renal): 6.23 µM
- GI50 (SF-268 CNS): 828 nM
- TGI (SF-268 CNS): 23.4 µM
- GI50 (SF-295 CNS): 239 nM
- TGI (SF-295 CNS): 12 µM
- GI50 (SF-539 CNS): 217 nM
- TGI (SF-539 CNS): 700 nM
- GI50 (SK-MEL-2 melanoma): 258 nM
- TGI (SK-MEL-2 melanoma): 627 nM
- GI50 (SK-MEL-28 melanoma): 1450 nM
- TGI (SK-MEL-28 melanoma): > 79.3 µM
- GI50 (SK-MEL-5 melanoma): 226 nM
- TGI (SK-MEL-5 melanoma): 8.13 µM
- GI50 (SK-OV-3 ovarian): 391 nM
- TGI (SK-OV-3 ovarian): 25.3 µM
- GI50 (SN12C renal): 419 nM
- TGI (SN12C renal): 8.97 µM
- GI50 (SNB-19 CNS): 554 nM
- TGI (SNB-19 CNS): 27.2 µM
- GI50 (SNB-75 CNS): 343 nM
- TGI (SNB-75 CNS): 5.6 µM
- GI50 (SR leukemia): 33.6 nM
- TGI (SR leukemia): > 21.9 µM
- GI50 (SW-620 colon): 203 nM
- TGI (SW-620 colon): > 100 µM
- GI50 (T-47D breast): 363 nM
- TGI (T-47D breast): 78 µM
- GI50 (TK-10 renal): 2590 nM
- TGI (TK-10 renal): 39.6 µM
- GI50 (U251 CNS): 316 nM
- TGI (U251 CNS): 12.8 µM
- GI50 (UACC-257 melanoma): 573 nM
- TGI (UACC-257 melanoma): 47.5 µM
- GI50 (UACC-62 melanoma): 151 nM
- TGI (UACC-62 melanoma): 5.27 µM
- GI50 (UO-31 renal): 458 nM
- TGI (UO-31 renal): > 67 µM

From PubChem BioAssay (NCI)
